# Assays:
# grass = assay: Growth of grass with cobalt lactate applied in the soil or sprayed (Example 1, Table 1); type: in vivo
# Source text: In Table 1, the growth of grass when cobalt lactate was applied either in the soil (before seeding) or sprayed directly onto the grass once growing is shown for the various levels of cobalt (0, 1, 10, 100 and 1000 ppm) that was applied. Following growth 2, cuttings were made then the total weight of grass was shown for the various treatments. […] All work was done with a fully complete soil with respect to nitrogen, phosphorus and potash (Miracle Gro Soil), so that the only difference in the greenhouse flats was the applied cobalt level and the manner in which it was applied.
# Food Plot Clover Mix = assay: Greenhouse flats, plant growth (sprouts, harvest weight, % of control): Food Plot Clover Mix, Flats 1-16 (Tables 2, 3); type: in vivo, mixture of clovers; details: Flat 13, Clover Mix 5.2 g seed/flat
# Procedure: (§1) Sixty-four sample flats were analyzed. Empty flats were filled with about 0.25 cubic feet of Miracle Gro Soil per flat (a complete soil with enough macro-nutrients, nitrogen, phosphorus and potash to feed the plants for 3-4 months). The seeds were planted and then the seeded soil treated. Flats were watered daily. Progress was documented weekly. This number of flats resulted from running a number of positive controls and several levels of the chelated cobalt lactate per plant selection or choice.
# (§2) The makeup of 64 flats was 8 sections times 8 flats per section. The first 8 flats were planted with a mixture of clovers. Flats 9-16 were also planted with the clover mixture at 5.2 grams seed/flat versus 2.6 grams seed/flat in 1-8. Flats 17-24 were planted with Fast & Fine Seed at 2.6 grams/flat, equivalent to the seeding rate from 2008. Fast & Fine Premium Grass Seed is a commercial mixture of Indy Perennial Ryegrass, Silver Dollar Perennial Ryegrass, Boreal Creeping Red Fescue, Kelly Kentucky Bluegrass and Clearwater Kentucky Bluegrass. Flats 25-32 were planted with a mixture including green globe turnips, dwarf Essex forage rapeseed, Rangi forage and giant rapeseed. Flats 33-40 were planted with a mixture of seeds including hybrid sunflower, grain sorghum, Proso millet and buck-wheat, at 5.2 grams/flat. […]
# [1] = test system: Fast & Fine Premium Grass Seed; assay: Greenhouse flats, plant growth: Fast & Fine Grass seed, Flats 17-24 (Table 4); type: in vivo, Perennial Ryegrass, Creeping Red Fescue, Kentucky Bluegrass; details: 1 ppm applied to the soil; second year
# Procedure: as §1, §2
# ruminal microorganisms = assay: Effect of cobalt on methane, pH, ammonia-N, and digestibility in continuous cultures of ruminal microorganisms (Table 10); type: cell-based; details: for IVDMTD (in vitro dry matter true digestibility), %: 24 h incubation; for Culture pH, Post-feeding / Methane, nmol/ml, Post-feeding: average of samples at 1, 2, 4 and 6 h after AM feeding; for Culture pH, Pre-feeding / Methane, nmol/ml, Pre-feeding: samples taken at 0 hours
# Procedure: Ammonia-N concentrations were not affected (P>0.10) by dietary treatments. […] There was a source x level interaction (P<0.001) for neutral detergent fiber (NDF) digestibility (Table 6). […] Earlier studies reported no effect on DM and NDF digestibility when Co was added at the 5.0 or 10.0 ppm levels.
# [2] = Cobalt Medium DI H2O (spray), Target Cobalt Level 1 ppm
# [3] = Cobalt Medium DI H2O (spray), Target Cobalt Level 10 ppm
# [4] = Cobalt Medium DI H2O (spray), Target Cobalt Level 100 ppm
# [5] = Cobalt Medium DI H2O (spray), Target Cobalt Level 1000 ppm
# [6] = Cobalt Medium Soil, Target Cobalt Level 1 ppm
# [7] = Cobalt Medium Soil, Target Cobalt Level 10 ppm
# [8] = Cobalt Medium Soil, Target Cobalt Level 100 ppm
# [9] = Cobalt Medium Soil, Target Cobalt Level 1000 ppm
smiles,measurement,setting,value
CC(O)C(=O)[O-].CC(O)C(=O)[O-].[Co+2] (stereo not shown) [cobalt lactate],"Grass Cuttings Weight (gms, 1st)",grass; [2],15.7 gms
same,"Grass Cuttings Weight (gms, 2nd)",grass; [2],13.9 gms
same,"Sum Grass Cuttings Weight (gms, 1st + 2nd)",grass; [2],29.6 gms
same,"Grass Cuttings Weight (gms, 1st)",grass; [3],17.76 gms
same,"Grass Cuttings Weight (gms, 2nd)",grass; [3],14.37 gms
same,"Sum Grass Cuttings Weight (gms, 1st + 2nd)",grass; [3],32.13 gms
same,"Grass Cuttings Weight (gms, 1st)",grass; [4],18.56 gms
same,"Grass Cuttings Weight (gms, 2nd)",grass; [4],26.57 gms
same,"Sum Grass Cuttings Weight (gms, 1st + 2nd)",grass; [4],45.13 gms
same,"Grass Cuttings Weight (gms, 1st)",grass; [5],24.03 gms
same,"Grass Cuttings Weight (gms, 2nd)",grass; [5],15.44 gms
same,"Sum Grass Cuttings Weight (gms, 1st + 2nd)",grass; [5],39.47 gms
same,"Grass Cuttings Weight (gms, 1st)",grass; [6],31.06 gms
same,"Grass Cuttings Weight (gms, 2nd)",grass; [6],22.73 gms
same,"Sum Grass Cuttings Weight (gms, 1st + 2nd)",grass; [6],53.79 gms
same,"Grass Cuttings Weight (gms, 1st)",grass; [7],22.8 gms
same,"Grass Cuttings Weight (gms, 2nd)",grass; [7],31.41 gms
same,"Sum Grass Cuttings Weight (gms, 1st + 2nd)",grass; [7],54.21 gms
same,"Grass Cuttings Weight (gms, 1st)",grass; [8],16.33 gms
same,"Grass Cuttings Weight (gms, 2nd)",grass; [8],10.12 gms
same,"Sum Grass Cuttings Weight (gms, 1st + 2nd)",grass; [8],26.45 gms
same,"Grass Cuttings Weight (gms, 1st)",grass; [9],5.15 gms
same,"Grass Cuttings Weight (gms, 2nd)",grass; [9],1.81 gms
same,"Sum Grass Cuttings Weight (gms, 1st + 2nd)",grass; [9],6.96 gms
same,Growth of grass,grass; applied in the soil at 1 or 10 ppm or applied by spray at 100 ppm,roughly doubled
same,Growth ahead of the positive control (Delt Ag),Food Plot Clover Mix,13%
same,Grass growth,[1],double the grass growth
"O=C([O-])[O-].[Co+2] [Cobalt Carbonate, cobalt carbonate]",Ammonia-N,ruminal microorganisms; 0.2 ppm,10.79 mg/dL
same,"NDF Digestibility, %",ruminal microorganisms; 0.2 ppm,23.16%
same,"IVDMTD (in vitro dry matter true digestibility), %",ruminal microorganisms; 0.2 ppm,59.35%
same,"Culture pH, Post-feeding",ruminal microorganisms; 0.2 ppm,5.56
same,"Methane, nmol/ml, Post-feeding",ruminal microorganisms; 0.2 ppm,403.14 nmol/mL
same,"Culture pH, Pre-feeding",ruminal microorganisms; 0.2 ppm,5.81
same,"Methane, nmol/ml, Pre-feeding",ruminal microorganisms; 0.2 ppm,363.91 nmol/mL
same,Ammonia-N,ruminal microorganisms; 1.0 ppm,10.88 mg/dL
same,"NDF Digestibility, %",ruminal microorganisms; 1.0 ppm,17.09%
same,Effect on NDF digestibility,ruminal microorganisms; 1.0 ppm level,negative effect
same,"IVDMTD (in vitro dry matter true digestibility), %",ruminal microorganisms; 1.0 ppm,59.17%
same,"Culture pH, Post-feeding",ruminal microorganisms; 1.0 ppm,5.55
same,"Methane, nmol/ml, Post-feeding",ruminal microorganisms; 1.0 ppm,515.35 nmol/mL
same,"Culture pH, Pre-feeding",ruminal microorganisms; 1.0 ppm,5.88
same,"Methane, nmol/ml, Pre-feeding",ruminal microorganisms; 1.0 ppm,347.82 nmol/mL
same,Effect on methane concentration,"ruminal microorganisms; continuous cultures, P>0.10 for no effect",significant negative impact
